Data from paper PMC9243770, “Structural and Biophysical Characterization of Purified Recombinant Arabidopsis thaliana's Alternative Oxidase 1A (rAtAOX1A): Interaction With Inhibitor(s) and Activator” (Frontiers in Plant Science, 2022).

Key:
[1] = target: T1, Alternative oxidase 1A (rAtAOX1A) (Arabidopsis thaliana, UniProt Q39219); test: SPR (Biacore, CM5 chip, […] Langmuir kinetic fit); also CD and inhibition of cell respiration; format: binding
T1 construct: gene AOX1A; mature protein, N-terminal His6-tag, expressed in E. coli BL21(DE3)
T1 sequence (Q39219 63-354): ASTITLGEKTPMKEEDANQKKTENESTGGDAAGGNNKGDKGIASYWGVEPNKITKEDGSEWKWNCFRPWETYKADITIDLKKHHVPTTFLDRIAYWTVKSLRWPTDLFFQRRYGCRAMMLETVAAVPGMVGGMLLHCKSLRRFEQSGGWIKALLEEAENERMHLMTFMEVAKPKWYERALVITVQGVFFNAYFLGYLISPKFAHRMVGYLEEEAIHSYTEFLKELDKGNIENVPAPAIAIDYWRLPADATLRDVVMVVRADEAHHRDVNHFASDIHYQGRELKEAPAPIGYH

[2] = target: T1, Alternative oxidase 1A (rAtAOX1A); test: oxygen uptake of purified enzyme with […] duroquinol (Clark-type electrode); format: biochemical

| oxygen uptake of purified enzyme with 600 μM duroquinol (Clark-type electrode) [2] | SMILES | Kd [1] |
| --- | --- | --- |
| – | CCCOC(=O)c1cc(O)c(O)c(O)c1 [n-PG, n-propyl gallate] | 0.491 nM |
| 3.86 μmol O2 min^−1 mg^−1 protein | Cc1c(C)c(O)c(C)c(C)c1O [DQH2, duroquinol] | – |
| – | O=C(NO)c1ccccc1O [SHAM, salicylhydroxamic acid] | 3.08 nM |
